Source: patent US20090028873A1, “SUBSTITUTED CYCLOHEXANOLS” (AUSPEX PHARMACEUTICALS, INC., priority 2007, published 2009)
Where a name gives a salt, the structure may show the parent alone.

Test: In Vitro Human Liver Microsomal (HLM) Stability Assay
Type: in vitro ADME
Settings: vs non-isotopically enriched drug, 1 μM, 4 mg per mL liver microsome protein, 37° C.
Method: Liver microsomal stability assays are conducted at 4 mg per mL liver microsome protein with an NADPH-generating system in 2% NaHCO3 (2.2 mM NADPH, 25.6 mM glucose 6-phosphate, 6 units per mL glucose 6-phosphate dehydrogenase and 3.3 mM MgCl2). Test compounds are prepared as solutions in 20% acetonitrile-water and added to the assay mixture (final assay concentration 1 μM) and incubated at 37° C. Final concentration of acetonitrile in the assay should be <1%. Aliquots (50 μL) are taken out at times 0, 0.5, 1, 1.5, and 2 hours, and diluted with ice cold acetonitrile (200 μL) to stop the reactions. Samples are centrifuged at 12,000 RPM for 10 min to precipitate proteins. Supernatants are transferred to micro centrifuge tubes and stored for LC/MS/MS analysis of the degradation half-life of the test compounds.
Results of In Vitro Human Liver Microsomal (HLM) Stability Assay

Structure (SMILES)	% increase of HLM degradation half-life 0%-50%	% increase of HLM degradation half-life 50%-150%	also measured
[2H]O[C@@]1(c2c([2H])c([2H])c([2H])c(OC([2H])([2H])[2H])c2[2H])C([2H])([2H])C([2H])([2H])C([2H])([2H])C([2H])([2H])[C@@]1([2H])C([2H])([2H])N(C([2H])([2H])[2H])C([2H])([2H])[2H] [Example 1, d25-(−)-(1S,2S)-2-[(Dimethylamino)-methyll-1-(3-methoxyphenyl)-cyclohexanol)]	+ (0%-50%)		
[2H]C([2H])([2H])Oc1cccc([C@@]2(O)CCCC[C@@H]2CN(C)C)c1 [Example 9, d3-(1R, 2R)-2-(Dimethylaminomethyl)-1-(3-methoxyphenyl)-cyclohexanol hydrochloride]		+ (50%-150%)	
COc1cccc(C2(O)CCCCC2CN(C)C)c1 (stereo not drawn) [Example 5, 2-(Dimethylaminomethyl)-1-(3-methoxyphenyl)-cyclohexanol, reference compound]		+ (50%-150%)	
[2H]c1c([2H])c(O)c([2H])c([C@]2(O)C([2H])([2H])C([2H])([2H])C([2H])([2H])C([2H])([2H])[C@@]2([2H])C([2H])([2H])N(C([2H])([2H])[2H])C([2H])([2H])[2H])c1[2H] [Example 3]	+ (0%-50%)		
[2H]C([2H])([2H])Oc1cccc(C2(O)CCCCC2CN(C)C)c1 (stereo not drawn) [Example 8, d3-2-(Dimethylaminomethyl)-1-(3-methoxyphenyl)-cyclohexanol]	+ (0%-50%)		
[2H]O[C@]1(c2c([2H])c([2H])c([2H])c(OC([2H])([2H])[2H])c2[2H])C([2H])([2H])C([2H])([2H])C([2H])([2H])C([2H])([2H])[C@]1([2H])C([2H])([2H])N(C([2H])([2H])[2H])C([2H])([2H])[2H] [Example 2]			% increase of HLM degradation half-life −25%-0% (column −25%-0%): + (−25%-0%)
COc1cccc([C@@]2(O)CCCC[C@@H]2CN(C)C)c1 [Example 6, (1R, 2R)-2-(Dimethylaminomethyl)-1-(3-methoxyphenyl)-cyclohexanol hydrochloride, reference compound]		+ (50%-150%)	
[2H]C([2H])([2H])N(C[C@H]1CCCC[C@]1(O)c1cccc(OC)c1)C([2H])([2H])[2H] [Example 12, d6-(1R,2R)-2-(Dimethylaminomethyl)-1-(3-methoxyphenyl)-cyclohexanol hydrochloride]			% increase of HLM degradation half-life >150% (column >150%): + (>150%)
[2H]C([2H])([2H])N(CC1CCCCC1(O)c1cccc(OC)c1)C([2H])([2H])[2H] (stereo not drawn) [Example 11]		+ (50%-150%)	
